Results taken from publication PMC7815716, “Mechanistic basis of breast cancer resistance protein inhibition by new indeno[1,2-b]indoles” (Scientific Reports, 2021).
“Also recorded” adds a separate entry of the source.

Legend:
ABCC1 (MRP1) = target: T1, ABCC1 (MRP1) (Homo sapiens, UniProt P33527); assay: ABCC1 (MRP1) calcein-AM transport inhibition in BHK21-ABCC1 cells; format: cell-based; settings: 1 and 10 µM; for Inhibition of MRP1-mediated transport: calcein-AM
T1 construct: expressed in transfected cells; host or cells: BHK21
T1 sequence (P33527 whole entry): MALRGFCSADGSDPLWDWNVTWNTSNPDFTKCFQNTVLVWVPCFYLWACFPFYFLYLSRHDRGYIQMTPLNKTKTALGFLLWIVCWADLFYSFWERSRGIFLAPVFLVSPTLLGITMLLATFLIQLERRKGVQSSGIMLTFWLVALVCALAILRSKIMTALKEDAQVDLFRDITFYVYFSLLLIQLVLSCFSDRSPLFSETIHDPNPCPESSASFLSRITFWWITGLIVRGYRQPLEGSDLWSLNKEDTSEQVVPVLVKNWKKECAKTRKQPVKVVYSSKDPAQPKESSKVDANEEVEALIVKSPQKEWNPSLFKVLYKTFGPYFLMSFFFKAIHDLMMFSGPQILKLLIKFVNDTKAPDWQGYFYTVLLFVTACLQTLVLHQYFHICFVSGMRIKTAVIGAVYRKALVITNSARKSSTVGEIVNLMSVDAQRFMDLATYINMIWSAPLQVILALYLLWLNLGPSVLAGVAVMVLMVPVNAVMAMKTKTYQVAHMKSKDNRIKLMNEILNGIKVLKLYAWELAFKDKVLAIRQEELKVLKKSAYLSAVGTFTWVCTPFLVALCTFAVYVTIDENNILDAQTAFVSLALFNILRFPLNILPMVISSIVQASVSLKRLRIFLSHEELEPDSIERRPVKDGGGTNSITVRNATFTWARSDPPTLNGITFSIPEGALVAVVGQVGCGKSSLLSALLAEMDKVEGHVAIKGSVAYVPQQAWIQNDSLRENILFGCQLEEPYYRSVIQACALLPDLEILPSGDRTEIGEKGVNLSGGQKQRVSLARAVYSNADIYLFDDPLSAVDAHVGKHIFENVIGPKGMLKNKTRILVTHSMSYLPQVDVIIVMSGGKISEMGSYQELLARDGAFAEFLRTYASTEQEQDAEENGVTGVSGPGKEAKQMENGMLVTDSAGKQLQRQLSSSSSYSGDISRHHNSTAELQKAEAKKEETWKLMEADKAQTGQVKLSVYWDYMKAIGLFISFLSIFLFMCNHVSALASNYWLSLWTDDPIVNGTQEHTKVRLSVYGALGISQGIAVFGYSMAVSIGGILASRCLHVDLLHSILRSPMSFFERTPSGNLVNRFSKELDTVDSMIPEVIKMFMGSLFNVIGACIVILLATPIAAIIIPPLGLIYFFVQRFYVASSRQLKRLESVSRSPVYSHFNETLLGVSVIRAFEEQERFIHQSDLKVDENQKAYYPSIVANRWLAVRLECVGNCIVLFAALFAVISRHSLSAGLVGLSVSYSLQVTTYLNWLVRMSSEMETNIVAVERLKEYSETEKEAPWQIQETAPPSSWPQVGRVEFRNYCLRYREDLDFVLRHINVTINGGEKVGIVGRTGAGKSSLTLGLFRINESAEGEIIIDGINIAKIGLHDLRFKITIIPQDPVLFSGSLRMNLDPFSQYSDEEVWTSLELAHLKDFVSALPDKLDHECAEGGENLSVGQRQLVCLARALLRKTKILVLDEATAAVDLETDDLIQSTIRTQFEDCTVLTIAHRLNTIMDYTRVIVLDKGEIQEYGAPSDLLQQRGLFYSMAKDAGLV
Experimental: ABCG2 inhibition assays were carried out on HEK293 WT and HEK293-ABCG2 cells. Cells were seeded at the density of 1 × 10^5 cells/well in 24 well culture plates and incubated for 48 h at 37 °C under 5% CO2. Cells were treated with compounds and 10 μM of mitoxantrone for 30 min at 37 °C and 5% CO2. After incubation the cells were washed with PBS, trypsinized and resuspended in ice cold PBS. The intracellular drug fluorescence was monitored with a FACS Calibur cytometer (Becton Dickinson) using the FL4 channel, with at least 10,000 events collected. The maximal fluorescence (taken as 100%) was determined with the difference between the mean fluorescence of HEK-ABCG2 cells incubated with 0.5 μM Ko143 (ABCG2 reference inhibitor) or by using the HEK293 WT cell line as a control and cells without inhibitor (mitoxantrone alone). The percent of inhibition was determined as previously described. For bimodulation assays the cells were concomitantly treated with 10 μM of one or two combined inhibitors under similar conditions as described previously. For washing assays, cells were treated with 10 μM concentrations of compounds for 30 min. Then, the medium with the inhibitor was removed and the cells were washed with PBS and incubated only with culture medium for different periods of time (0.5 and 3 h). After incubation, cells were exposed to 5 µM mitoxantrone for 30 min, and then analyzed by flow cytometry. The percentage of transport inhibition was calculated by the following equation: %Inhibition=C-S/I-S×100 where “C” corresponds to the intracellular fluorescence of cells in the presence of the tested compounds and substrate (mitoxantrone to ABCG2, Rhodamine 123 to ABCB1 and calcein to ABCC1), “S” corresponds to the intracellular fluorescence of cells in the presence of substrate alone, and “I” corresponds to the intracellular fluorescence of cells in the presence of the substrate and reference inhibitor (Ko143 to ABCG2, GF120918 to ABCB1 and verapamil to ABCC1).
ABCB1 (P-gp) and ABCC1 (MRP1) inhibition assays were carried out on NIH3T3 WT and NIH3T3-ABCB1 or BHK21 WT and BHK21-ABCC1 cell lines. Cells were treated with 5 μM rhodamine 123 or 0.2 μM calcein-AM as substrates, and with or without GF120918 (0.5 μM) or verapamil (30 μM) as reference inhibitors, for ABCB1 and ABCC1, respectively. Compounds were assayed at 1 and 10 µM. The same procedure and calculation to determine the percentage of inhibition were used for ABCG2 inhibition assays. The intracellular fluorescence was monitored with a FACS Calibur cytometer (Becton Dickinson) using the FL1 channel.

HEK293-ABCG2 cells = assay: Sensitization of ABCG2-transfected cells to SN-38, MTT assay; format: cell-based, human; settings: for Chemosensitization to SN-38: HEK293-ABCG2, 72 h co-treatment, IC50 value or 5 µM; for FR, fold reversal: vs HEK293 WT
Experimental: (§1) Cell viability was evaluated with a 3-(4,5-dimethylthiazol-2-yl)-2,5-diphenyltetrazolium bromide (MTT) colorimetric assay. HEK293 WT and HEK293-ABCG2 cells were seeded into 96-well culture plates at a 1.5 × 10^4 cells/well density. After overnight incubation, the cells were treated with various concentrations of compounds (0–100 µM) for 72 h at 37 °C under 5% CO2. […] Sensitization experiments were also carried out on H460 and H460MX20 cells. For these experiments, H460 and H460MX20 cells were seeded into 96-well culture plates at 1.0 × 10^4 cells/well density. […] After the treatment, the culture medium was removed and 100 μL of a 0.5 mg.mL^−1 MTT solution was added. Cells were then incubated for 4 h at 37 °C under 5% CO2. The formazan crystals were dissolved with a solution of DMSO/ethanol (1:1) and the absorbance was measured at 570 nm using a Multiscan FC microplate reader (Thermo Scientific). The results were expressed as percentage of viable cells versus control cells (0.1% DMSO, v/v) taken as 100%.

[1] = tested on: HEK293 WT and HEK293-ABCG2 cells; assay: Intrinsic cytotoxicity of compounds, MTT assay; format: cell-based, human; settings: HEK293-ABCG2 vs HEK293 WT, 72 h, 0.1–100 µM
Experimental: as §1

H460MX20 cells = assay: Sensitization of lung cancer cells overexpressing ABCG2 to SN-38, MTT assay; format: cell-based, human; settings: H460MX20, SN-38 10 nM, 72 h, IC50 value or 5 µM
Experimental: as §1

[2] = HEK293-ABCG2, SN-38 + inhibitor at 5 µM
[3] = HEK293-ABCG2, SN-38 + inhibitor at its IC50 value

| SMILES | Inhibition of MRP1-mediated transport (ABCC1 (MRP1)) | Chemosensitization to SN-38 (HEK293-ABCG2 cells) | FR, fold reversal (HEK293-ABCG2 cells; [2]) | FR, fold reversal (HEK293-ABCG2 cells; [3]) | Intrinsic cytotoxicity in ABCG2-transfected versus control cells (cross-resistance) [1] | Chemosensitization to SN-38 (H460MX20 cells) | Selectivity toward ABCG2 versus P-gp and MRP1 (ABCC1 (MRP1)) |
| --- | --- | --- | --- | --- | --- | --- | --- |
| COc1cc2c(cc1OC)-c1c(c3c(n1CCc1ccccc1)CC(C)CC3=O)C2=O (centres unmarked) [5e, 2,3-Dimethoxy-7-methyl-5-phenethyl-5,6,7,8-tetrahydroindeno[1,2-b]indole-9,10-dione] | partially inhibited | efficiently chemosensitize | 3.08 | 9.51 | no apparent cross-resistance | chemoresistance phenotype was fully reversed |  |
| COc1ccccc1CCn1c2c(c3c(O)cc(C)cc31)C(=O)c1ccccc1-2 [6a, 9-Hydroxy-7-methyl-5-(2-methoxyphenethyl)-5H-indeno[1,2-b]indol-10(5H)-one] |  | efficiently chemosensitize | 0.47 | 0.82 | no apparent cross-resistance | chemoresistance phenotype was fully reversed | specific ABCG2 inhibitor; also recorded: completely selective to ABCG2 |
| COc1ccc2[nH]cc(CCn3c4c(c5c(O)cccc53)C(=O)c3ccccc3-4)c2c1 [6c, 9-Hydroxy-5-(2-(5-methoxy-1H-indol-3-yl)ethyl)indeno[1,2-b]indol-10(5H)-one] | partially inhibited |  | 0.37 | 1.13 | mild collateral sensitivity (CS) effect |  |  |
| COc1cccc(CCn2c3c(c4c(O)cccc42)C(=O)c2ccc(O)cc2-3)c1 [6d, 3,9-Dihydroxy-5-(3-methoxyphenethyl)indeno[1,2-b]indol-10(5H)-one] | partially inhibited |  | 0.64 | 12.48 | mild collateral sensitivity (CS) effect |  |  |
